US20130116263A1, “PAK INHIBITORS FOR THE TREATMENT OF CELL PROLIFERATIVE DISORDERS” (AFRAXIS, INC., priority 2011, published 2013)
Read-outs that look alike come from different tables or passages of the source.

Experiments:
p-MEK1(S298) = assay: In vitro cellular HTRF assay for p-MEK1(S298); format: cell-based; details: cell line RT4-D6P2T, read-out: pMEK1(S298)
From the text: Some of the compounds for treatment of cancer are subject to in vitro cellular HTRF assay for p-PAK1(S144) and p-MEK1(S298). The cell line is RT4-D6P2T.

PAK1 = PAK1 (Homo sapiens, UniProt Q13153); assay: Additional in vitro PAK1 inhibition assay at ATP 10 uM and 1 mM; format: biochemical
Experimental: (§1) Similar in vitro PAK1 and PAK-4 inhibition assays are conducted in compounds for the treatment of cancer, but under ATP concentrations of 10 uM and 1 mM.

PAK4 = PAK4 (Homo sapiens, UniProt O96013); assay: Additional in vitro PAK-4 inhibition assay at ATP 10 uM and 1 mM; format: biochemical; details: 10 μM ATP; read-out: PAK4 IC50 (10 μM ATP)
Experimental: as §1

[1] = 10 μM ATP, read-out: PAK1 IC50 (10 μM ATP)
[2] = 1 mM ATP, read-out: PAK1 IC50 (1 mM ATP)

Chain of PAK1 (Q13153 whole entry): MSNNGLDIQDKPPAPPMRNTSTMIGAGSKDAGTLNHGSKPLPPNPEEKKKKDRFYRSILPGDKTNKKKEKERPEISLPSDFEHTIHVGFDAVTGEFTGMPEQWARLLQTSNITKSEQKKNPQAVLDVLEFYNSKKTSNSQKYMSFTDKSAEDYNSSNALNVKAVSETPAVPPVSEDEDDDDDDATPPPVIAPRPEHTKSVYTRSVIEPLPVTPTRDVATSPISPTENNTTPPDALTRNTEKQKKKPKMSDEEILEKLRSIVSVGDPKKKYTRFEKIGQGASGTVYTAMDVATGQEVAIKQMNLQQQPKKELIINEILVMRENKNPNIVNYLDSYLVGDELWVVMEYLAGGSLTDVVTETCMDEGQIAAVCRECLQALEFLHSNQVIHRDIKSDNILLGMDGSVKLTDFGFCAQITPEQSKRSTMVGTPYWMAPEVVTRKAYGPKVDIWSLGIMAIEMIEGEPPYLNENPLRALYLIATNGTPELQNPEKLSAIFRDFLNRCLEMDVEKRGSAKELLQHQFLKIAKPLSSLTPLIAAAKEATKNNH
Chain of PAK4 (O96013 whole entry): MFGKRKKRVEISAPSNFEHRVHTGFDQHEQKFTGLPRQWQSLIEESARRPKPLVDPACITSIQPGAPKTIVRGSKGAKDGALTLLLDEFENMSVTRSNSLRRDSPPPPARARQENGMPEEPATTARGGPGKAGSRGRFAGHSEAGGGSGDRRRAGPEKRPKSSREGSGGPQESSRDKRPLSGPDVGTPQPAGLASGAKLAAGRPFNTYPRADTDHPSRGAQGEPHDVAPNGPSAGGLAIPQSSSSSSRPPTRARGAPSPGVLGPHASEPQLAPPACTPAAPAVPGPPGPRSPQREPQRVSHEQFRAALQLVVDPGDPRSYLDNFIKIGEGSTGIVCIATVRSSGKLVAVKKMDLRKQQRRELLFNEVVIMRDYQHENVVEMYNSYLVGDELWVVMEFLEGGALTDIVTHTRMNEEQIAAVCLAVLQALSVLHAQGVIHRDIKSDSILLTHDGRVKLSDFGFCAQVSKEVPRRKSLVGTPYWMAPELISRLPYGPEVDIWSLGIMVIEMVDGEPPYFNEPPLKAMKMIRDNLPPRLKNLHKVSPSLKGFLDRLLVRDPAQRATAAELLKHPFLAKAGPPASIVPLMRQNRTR

| Structure (SMILES) | IC50 (p-MEK1(S298)) [µM] | IC50 (PAK1; [1]) [µM] | IC50 (PAK1; [2]) [µM] | IC50 (PAK4) [µM] |
| --- | --- | --- | --- | --- |
| Cc1nc(-c2ccc(-c3cc4cnc(NC5CCOCC5)nc4n(CC(=O)NC4CCNC4)c3=O)c(Cl)c2)no1 (centres unmarked) [drawing 387] | > 5 | – | – | – |
| Cc1nc(-c2ccc(-c3cc4cnc(NC5CCOCC5)nc4n(CC4CCN(C)CC4)c3=O)c(Cl)c2)no1 | – | 0.05 to 0.5 | ≥ 5 | ≥ 5 |
| CCn1c(=O)c(-c2ccc(-c3noc(C)n3)cc2Cl)cc2cnc(NC3CCNC3=O)nc21 (centres unmarked) | – | ≥ 5 | ≥ 5 | ≥ 5 |
| CCCCn1c(=O)c(-c2ccc(-c3noc(C)n3)cc2Cl)cc2cnc(NC3CCOCC3)nc21 | – | 0.05 to 0.5 | ≥ 5 | ≥ 5 |
| Cc1nc(-c2ccc(-c3cc4cnc(NC5CCOCC5)nc4n(Cc4cccc(CN)c4)c3=O)c(Cl)c2)no1 [drawing 342] | – | < 0.05 | 0.05 to 0.5 | ≥ 5 |
| Cc1nc(-c2ccc(-c3cc4cnc(NC5CCOCC5)nc4n(CC(=O)NCc4ccncc4)c3=O)c(Cl)c2)no1 [drawing 348] | – | 0.05 to 0.5 | ≥ 5 | ≥ 5 |
| CCn1c(=O)c(-c2ccc(-c3noc(C)n3)cc2Cl)cc2cnc(NCc3cccnc3)nc21 | – | 0.5 to 5 | ≥ 5 | ≥ 5 |
| CCCCNc1ncc2cc(-c3ccc(-c4noc(C)n4)cc3Cl)c(=O)n(CC)c2n1 | – | 0.5 to 5 | ≥ 5 | ≥ 5 |
| Cc1nc(-c2ccc(-c3cc4cnc(NC5CCOCC5)nc4n(CC(=O)NC4CCNC4)c3=O)c(Cl)c2)no1 (centres unmarked) [drawing 346] | – | 0.05 to 0.5 | ≥ 5 | ≥ 5 |
| Cc1nc(-c2ccc(-c3cc4cnc(NC5CCOCC5)nc4n(C4CCN(C5CCNCC5)C4)c3=O)c(Cl)c2)no1 (centres unmarked) | – | 0.05 to 0.5 | ≥ 5 | ≥ 5 |
| CCn1c(=O)c(-c2ccc(-c3noc(C)n3)cc2Cl)cc2cnc(NCC(C)(C)O)nc21 | – | 0.5 to 5 | ≥ 5 | ≥ 5 |
| CCn1c(=O)c(-c2ccc(-c3noc(C)n3)cc2Cl)cc2cnc(NC(C)C)nc21 | – | 0.5 to 5 | ≥ 5 | ≥ 5 |
| Cc1nc(-c2ccc(-c3cc4cnc(NC5CCOCC5)nc4n(CC(=O)N4CCC(N)CC4)c3=O)c(Cl)c2)no1 | – | 0.05 to 0.5 | ≥ 5 | ≥ 5 |
| Cc1nc(-c2ccc(-c3cc4cnc(NC5CC5)nc4n(Cc4cccc(CN)c4)c3=O)c(Cl)c2)no1 | – | < 0.05 | 0.5 to 5 | ≥ 5 |
| CCn1c(=O)c(-c2ccc(-c3noc(C)n3)cc2Cl)cc2cnc(NC3CC3c3ccccc3)nc21 (centres unmarked) | – | 0.5 to 5 | 0.5 to 5 | 0.5 to 5 |
| Cc1nc(-c2ccc(-c3cc4cnc(NC5CCOCC5)nc4n(C4CCOC(C)(C)C4)c3=O)c(Cl)c2)no1 (centres unmarked) | – | < 0.05 | 0.5 to 5 | ≥ 5 |
| Cc1nc(-c2ccc(-c3cc4cnc(N[C@H]5C[C@@H]5C)nc4n(CC4CCNCC4)c3=O)c(Cl)c2)no1 | – | < 0.05 | 0.5 to 5 | ≥ 5 |
| Cc1nc(-c2ccc(-c3cc4cnc(NC5CCOCC5)nc4n(CC(=O)NC4CCNCC4)c3=O)c(Cl)c2)no1 | – | 0.5 to 5 | ≥ 5 | ≥ 5 |
| CCn1c(=O)c(-c2ccc(-c3noc(C)n3)cc2Cl)cc2cnc(NCC3CCOCC3)nc21 | – | 0.5 to 5 | ≥ 5 | ≥ 5 |

| Structure (SMILES) | IC50 (p-MEK1(S298)) [µM] | IC50 (PAK1; [1]) [µM] | IC50 (PAK1; [2]) [µM] | IC50 (PAK4) [µM] |
| --- | --- | --- | --- | --- |
| Cc1nc(-c2ccc(-c3cc4cnc(NC5CCOCC5)nc4n(Cc4ccc(CN)cc4)c3=O)c(Cl)c2)no1 [drawing 341] | – | < 0.05 | 0.05 to 0.5 | ≥ 5 |
| Cc1nc(-c2ccc(-c3cc4cnc(NC5CCOCC5)nc4n(CC4CCNCC4)c3=O)c(Cl)c2)no1 [drawing 340] | – | < 0.05 | 0.5 to 5 | ≥ 5 |
| Cc1nc(-c2ccc(-c3cc4cnc(NC5CCOCC5)nc4n(CC(=O)N4CCC(CN)CC4)c3=O)c(Cl)c2)no1 [drawing 381] | > 5 | – | – | – |
| CCn1c(=O)c(-c2ccc(-c3noc(C)n3)cc2Cl)cc2cnc(NC3CC3)nc21 | – | 0.05 to 0.5 | ≥ 5 | ≥ 5 |
| Cc1nc(-c2ccc(-c3cc4cnc(NC5CCOCC5)nc4n(C4CCNC4)c3=O)c(Cl)c2)no1 (centres unmarked) | – | 0.5 to 5 | ≥ 5 | ≥ 5 |
| Cc1nc(-c2ccc(-c3cc4cnc(NC5CCOCC5)nc4n(CCC4CCNCC4)c3=O)c(Cl)c2)no1 [drawing 343] | – | < 0.05 | 0.5 to 5 | ≥ 5 |
| Cc1nc(-c2ccc(-c3cc4cnc(NC5CCOCC5)nc4n(-c4ccccc4)c3=O)c(Cl)c2)no1 | – | 0.05 to 0.5 | ≥ 5 | ≥ 5 |
| Cc1nc(-c2ccc(-c3cc4cnc(NC5CCOCC5)nc4n(C4CCN(C(=O)CN)CC4)c3=O)c(Cl)c2)no1 | – | 0.05 to 0.5 | ≥ 5 | ≥ 5 |
| CCn1c(=O)c(-c2ccc(-c3noc(C)n3)cc2Cl)cc2cnc(NC3CCOC(C)(C)C3)nc21 (centres unmarked) | – | 0.05 to 0.5 | ≥ 5 | ≥ 5 |
| CCn1c(=O)c(-c2ccc(-c3noc(C)n3)cc2Cl)cc2cnc(N[C@@H]3CCO[C@@H]3N3CCN(C)CC3)nc21 | – | 0.05 to 0.5 | ≥ 5 | ≥ 5 |
| CCn1c(=O)c(-c2ccc(-c3noc(C)n3)cc2Cl)cc2cnc(NC3CCC(=O)NC3)nc21 (centres unmarked) | – | 0.5 to 5 | ≥ 5 | ≥ 5 |
| CCn1c(=O)c(-c2ccc(-c3noc(C)n3)cc2Cl)cc2cnc(NN3CCOCC3)nc21 | – | 0.5 to 5 | ≥ 5 | ≥ 5 |
| Cc1nc(-c2ccc(-c3cc4cnc(NC5CCOCC5)nc4n(Cc4c(F)cccc4C(F)(F)F)c3=O)c(Cl)c2)no1 | – | 0.05 to 0.5 | 0.5 to 5 | ≥ 5 |
| CCn1c(=O)c(-c2ccc(-c3noc(C)n3)cc2Cl)cc2cnc(NCC(=O)N(C)C)nc21 | – | ≥ 5 | ≥ 5 | 0.05 to 0.5 |
| CCn1c(=O)c(-c2ccc(-c3noc(C)n3)cc2Cl)cc2cnc(N[C@@H]3C[C@H]3C)nc21 | – | 0.05 to 0.5 | < 0.05 | < 0.05 |
| CCN1CCC(CCNc2ncc3cc(-c4ccc(-c5noc(C)n5)cc4Cl)c(=O)n(CC)c3n2)CC1 | – | 0.05 to 0.5 | 0.5 to 5 | ≥ 5 |
| Cc1nc(-c2ccc(-c3cc4cnc(NC5CCOCC5)nc4n(C4CCN(CCN)C4)c3=O)c(Cl)c2)no1 (centres unmarked) | – | 0.05 to 0.5 | ≥ 5 | ≥ 5 |
| CCn1c(=O)c(-c2ccc(-c3noc(C)n3)cc2Cl)cc2cnc(NCCCOC)nc21 | – | 0.5 to 5 | ≥ 5 | ≥ 5 |
| Cc1nc(-c2ccc(-c3cc4cnc(NC5CCOCC5)nc4n(CC(=O)N4CCCC(CN)C4)c3=O)c(Cl)c2)no1 (centres unmarked) | – | 0.05 to 0.5 | ≥ 5 | ≥ 5 |

| Structure (SMILES) | IC50 (p-MEK1(S298)) [µM] | IC50 (PAK1; [1]) [µM] | IC50 (PAK1; [2]) [µM] | IC50 (PAK4) [µM] |
| --- | --- | --- | --- | --- |
| CCn1c(=O)c(-c2ccc(-c3noc(C)n3)cc2Cl)cc2cnc(NCC(=O)NC)nc21 | – | 0.5 to 5 | ≥ 5 | ≥ 5 |
| CCO[C@H]1COC[C@@H]1Nc1ncc2cc(-c3ccc(-c4noc(C)n4)cc3Cl)c(=O)n(CC)c2n1 | – | 0.5 to 5 | ≥ 5 | ≥ 5 |
| Cc1nc(-c2ccc(-c3cc4cnc(NC5CCNC(=O)C5)nc4n(Cc4c(F)cccc4C(F)(F)F)c3=O)c(Cl)c2)no1 (centres unmarked) [drawing 354] | – | < 0.05 | 0.5 to 5 | ≥ 5 |
| CCn1c(=O)c(-c2ccc(-c3noc(C)n3)cc2Cl)cc2cnc(N[C@H]3CC[C@H](N4CCN(C)CC4)CC3)nc21 | – | 0.5 to 5 | ≥ 5 | ≥ 5 |
| Cc1nc(-c2ccc(-c3cc4cnc(NC5CCOCC5)nc4n(CC4CCCN(C)C4)c3=O)c(Cl)c2)no1 (centres unmarked) | – | 0.05 to 0.5 | ≥ 5 | ≥ 5 |
| CCn1c(=O)c(-c2ccc(-c3noc(C)n3)cc2Cl)cc2cnc(NCC3CCCO3)nc21 (centres unmarked) | – | 0.5 to 5 | ≥ 5 | ≥ 5 |
| CCn1c(=O)c(-c2ccc(-c3noc(C)n3)cc2Cl)cc2cnc(NCc3ccncc3)nc21 | – | 0.05 to 0.5 | ≥ 5 | ≥ 5 |
| CCn1c(=O)c(-c2ccc(-c3noc(C)n3)cc2Cl)cc2cnc(NCc3ccccc3)nc21 | – | 0.5 to 5 | ≥ 5 | ≥ 5 |
| Cc1nc(-c2ccc(-c3cc4cnc(NC5CCOCC5)nc4n(Cc4cccc(CCN)c4)c3=O)c(Cl)c2)no1 [drawing 339] | – | < 0.05 | 0.05 to 0.5 | ≥ 5 |
| CCn1c(=O)c(-c2ccc(-c3noc(C)n3)cc2Cl)cc2cnc(NC3CCN(C)C3=O)nc21 (centres unmarked) | – | ≥ 5 | ≥ 5 | ≥ 5 |
| CCn1c(=O)c(-c2ccc(-c3noc(C)n3)cc2Cl)cc2cnc(NC3COC3)nc21 | – | 0.05 to 0.5 | ≥ 5 | ≥ 5 |
| CCn1c(=O)c(-c2ccc(-c3noc(C)n3)cc2Cl)cc2cnc(NCCCO)nc21 | – | 0.05 to 0.5 | ≥ 5 | ≥ 5 |
| CCn1c(=O)c(-c2ccc(-c3noc(C)n3)cc2Cl)cc2cnc(NCCCNC(C)=O)nc21 | – | 0.5 to 5 | ≥ 5 | ≥ 5 |
| CCNc1ncc2cc(-c3ccc(-c4noc(C)n4)cc3Cl)c(=O)n(CC)c2n1 | – | 0.5 to 5 | ≥ 5 | ≥ 5 |
| Cc1nc(-c2ccc(-c3cc4cnc(NC5CCOCC5)nc4n(CC(=O)NCCCN)c3=O)c(Cl)c2)no1 | – | < 0.05 | 0.5 to 5 | ≥ 5 |
| Cc1nc(-c2ccc(-c3cc4cnc(NC5CCOCC5)nc4n(CC4CCCNC4)c3=O)c(Cl)c2)no1 (centres unmarked) | – | 0.05 to 0.5 | ≥ 5 | ≥ 5 |
| Cc1nc(-c2ccc(-c3cc4cnc(NC5CCOCC5)nc4n(Cc4ccc(CCN)cc4)c3=O)c(Cl)c2)no1 [drawing 338] | – | < 0.05 | 0.5 to 5 | ≥ 5 |
| CCN1CCC(Cn2c(=O)c(-c3ccc(-c4noc(C)n4)cc3Cl)cc3cnc(NC4CCOCC4)nc32)CC1 | – | 0.05 to 0.5 | ≥ 5 | ≥ 5 |
